Measured values from patent US8846739B2, “TGR5 agonists” (Exelixis Patent Company LLC, priority 2009, dated 2014).
pEC50: −log10 of the molar value.

Legend:
h-TGR5 = target: T1, h-TGR5 (Homo sapiens, UniProt Q8TDU6); test: TGR5 cAMP Assay using Cisbio cAMP Dynamic 2 htrf assay kit; assay type: cell-based; conditions: hTGR5CRE-luc HEK 293 cells
T1 sequence (Q8TDU6 1-330): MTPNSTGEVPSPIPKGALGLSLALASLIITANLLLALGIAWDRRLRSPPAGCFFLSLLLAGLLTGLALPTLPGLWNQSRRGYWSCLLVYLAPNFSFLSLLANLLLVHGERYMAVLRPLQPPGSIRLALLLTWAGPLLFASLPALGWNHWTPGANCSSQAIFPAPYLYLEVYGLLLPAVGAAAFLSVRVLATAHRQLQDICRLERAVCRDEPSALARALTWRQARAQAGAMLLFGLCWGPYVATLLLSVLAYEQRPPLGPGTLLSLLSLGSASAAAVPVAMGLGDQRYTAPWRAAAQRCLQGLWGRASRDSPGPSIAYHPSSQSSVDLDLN

human TGR5 (h-TGR5) = target: T2, human TGR5 (h-TGR5) (Homo sapiens, UniProt Q8TDU6); test: TGR5/CRE-Luciferase Assay; assay type: cell-based; conditions: HEK 293 hTGR5/CRE-Luc cells, 6 hours incubation, read-out: CRE-Luc Agonist (EC50)
T2 sequence (Q8TDU6 1-330): T1 sequence (Q8TDU6 1-330)
In short: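 HEK 293 CRE-Luciferase cells stably expressing the receptor, plated in DMEM 18-20 h before assay, then exposed to serially diluted compounds (DMEM with 5% DMSO) for 6 h. Luciferase read-out after lysis; EC50 from dose-response.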

pEC50 (h-TGR5)	pEC50 (human TGR5 (h-TGR5))	Compound
> 7.00	> 7.00	COc1cc(C(C)(C)c2cnc(SCc3c(F)cc(S(=O)(=O)N(CCC[N+](C)(C)C)[C@@H](CO)C(=O)O)cc3F)n2-c2ccc(F)cc2)ccc1Cl [Compound 14t, 3-([(1S)-1-carboxy-2-hydroxyethyl]{[4-({[5-{1-[4-chloro-3-(methyloxy)phenyl]-1-methylethyl}-1-(4-fluorophenyl)-1H-imidazol-2-yl]thio}methyl)-3,5-difluorophenyl]sulfonyl}amino)-N,N,N-trimethylpropan-1-aminium]
> 7.00	> 7.00	COc1cc(C(C)(C)c2cnc(SCc3c(F)cc(S(=O)(=O)N(CCC[N+](C)(C)C)CCC(=O)O)cc3Cl)n2-c2ccc(F)cc2)ccc1Cl [Compound 14u, 3-[(2-carboxyethyl){[3-chloro-4-({[5-{1-[4-chloro-3-(methyloxy)phenyl]-1-methylethyl}-1-(4-fluorophenyl)-1H-imidazol-2-yl]thio}methyl)-5-fluorophenyl)sulfonyl}amino]-N,N,N-trimethylpropan-1-aminium]
> 7.00	> 7.00	CC[C@@H](C(=O)O)N(CCC[N+](C)(C)C)S(=O)(=O)c1cc(F)c(CSc2ncc(C(C)(C)c3ccc(Cl)c(OC)c3)n2-c2ccc(F)cc2)c(Cl)c1 [Compound 14w, 3-([(1S)-1-carboxypropyl]{[3-chloro-4-({[5-{1-[4-chloro-3-(methyloxy)phenyl]-1-methylethyl}-1-(4-fluorophenyl)-1H-imidazol-2-yl]thio}methyl)-5-fluorophenyl]sulfonyl}amino)-N,N,N-trimethylpropan-1-aminium]
> 7.00	> 7.00	COc1cc(C(C)(C)c2cnc(SCc3c(F)cc(S(=O)(=O)N(CCC[N+](C)(C)C)[C@@H](C)C(=O)O)cc3Cl)n2-c2ccc(F)cc2)ccc1Cl [Compound 14x, 3-([(1S)-1-carboxyethyl]{[3-chloro-4-({[5-{1-[4-chloro-3-(methyloxy)phenyl]-1-methylethyl}-1-(4-fluorophenyl)-1H-imidazol-2-yl]thio}methyl)-5-fluorophenyl]sulfonyl}amino)-N,N,N-trimethylpropan-1-aminium]
> 7.00	> 7.00	COc1cc(C(C)(C)c2cnc(SCc3c(F)cc(S(=O)(=O)N(CCC[N+](C)(C)C)[C@H](C)C(=O)O)cc3Cl)n2-c2ccc(F)cc2)ccc1Cl [Compound 14y, 3-([(1R)-1-carboxyethyl]{[3-chloro-4-({[5-{1-[4-chloro-3-(methyloxy)phenyl]-1-methylethyl}-1-(4-fluorophenyl)-1H-imidazol-2-yl]thio}methyl)-5-fluorophenyl]sulfonyl}amino)-N,N,N-trimethylpropan-1-aminium]
> 7.00	> 7.00	COc1cc(C(C)(C)c2cnc(SCc3c(F)cc(S(=O)(=O)N(CCC[N+](C)(C)C)C4(C(=O)O)CC4)cc3Cl)n2-c2ccc(F)cc2)ccc1Cl [Compound 14z, 3-[(1-carboxycyclopropyl){[3-chloro-4-({[5-{1-[4-chloro-3-(methyloxy)phenyl]-1-methylethyl}-1-(4-fluorophenyl)-1H-imidazol-2-yl]thio}methyl)-5-fluorophenyl]sulfonyl}amino]-N,N,N-trimethylpropan-1-aminium]
> 7.00	> 7.00	COc1cc(C(C)(C)c2cnc(SCc3c(F)cc(S(=O)(=O)N(C)[C@@H](CCC[N+](C)(C)C)C(=O)O)cc3Cl)n2-c2ccc(F)cc2)ccc1Cl [Compound 17b, (S)-4-carboxy-4-(3-chloro-4-((5-(2-(4-chloro-3-methoxyphenyl)propan-2-yl)-1-(4-fluorophenyl)-1H-imidazol-2-ylthio)methyl)-5-fluoro-N-methylphenylsulfonamido)-N,N,N-trimethylbutan-1-aminium 2,2,2-trifluoroacetate]
> 7.00	> 7.00	COc1cc(C(C)(C)c2cnc(SCc3c(F)cc(S(=O)(=O)N(C)[C@H](CCC[N+](C)(C)C)C(=O)O)cc3F)n2-c2ccc(F)cc2)ccc1Cl [Compound 17c, (R)-4-carboxy-4-(4-((5-(2-(4-chloro-3-methoxyphenyl)propan-2-yl)-1-(4-fluorophenyl)-1H-imidazol-2-ylthio)methyl)-3,5-difluoro-N-methylphenylsulfonamido)-N,N,N-trimethylbutan-1-aminium 2,2,2-trifluoroacetate]
> 7.00	> 7.00	COc1cc(C(C)(C)c2cnc(SCc3c(F)cc(S(=O)(=O)N(C)[C@H](CCC[N+](C)(C)C)C(=O)O)cc3Cl)n2-c2ccc(F)cc2)ccc1Cl [Compound 17d, (R)-4-carboxy-4-(3-chloro-4-((5-(2-(4-chloro-3-methoxyphenyl)propan-2-yl)-1-(4-fluorophenyl)-1H-imidazol-2-ylthio)methyl)-5-fluoro-N-methylphenylsulfonamido)-N,N,N-trimethylbutan-1-aminium 2,2,2-trifluoroacetate]
> 7.00	> 7.00	COc1cc(C(C)(C)c2cnc(SCc3c(F)cc(S(=O)(=O)N[C@@H](CCCC[N+](C)(C)C)C(=O)O)cc3Cl)n2-c2ccc(F)cc2)ccc1Cl [Compound 17e, (S)-5-carboxy-5-(3-chloro-4-((5-(2-(4-chloro-3-methoxyphenyl)propan-2-yl)-1-(4-fluorophenyl)-1H-imidazol-2-ylthio)methyl)-5-fluorophenylsulfonamido)-N,N,N-trimethylpentan-1-aminium 2,2,2-trifluoroacetate]
> 7.00	> 7.00	COc1cc(C(C)(C)c2cnc(SCc3c(F)cc(S(=O)(=O)N(C)[C@@H](CCCC[N+](C)(C)C)C(=O)O)cc3Cl)n2-c2ccc(F)cc2)ccc1Cl [Compound 17f, (S)-5-carboxy-5-(3-chloro-4-((5-(2-(4-chloro-3-methoxyphenyl)propan-2-yl)-1-(4-fluorophenyl)-1H-imidazol-2-ylthio)methyl)-5-fluoro-N-methylphenylsulfonamido)-N,N,N-trimethylpentan-1-aminium 2,2,2-trifluoroacetate]

More lines, now with the values behind:

Compound	pEC50 (h-TGR5)	pEC50 (human TGR5 (h-TGR5))
COc1cc(C(C)(C)c2cnc(SCc3c(F)cc(S(=O)(=O)N(CCC[N+](C)(C)C)Cc4cccc(C(=O)O)c4)cc3F)n2-c2ccc(F)cc2)ccc1Cl [Compound 14v, 3-([(3-carboxyphenyl)methyl]{[4-({[5-{1-[4-chloro-3-(methyloxy)phenyl]-1-methylethyl}-1-(4-fluorophenyl)-1H-imidazol-2-yl]thio}methyl)-3,5-difluorophenyl]sulfonyl}amino)-N,N,N-trimethylpropan-1-aminium]	> 7.00	> 7.00
COc1cc(C(C)(C)c2cnc(SCc3c(F)cc(S(=O)(=O)N(CC4CC[N+](C)(C)CC4)[C@H](C)C(=O)O)cc3F)n2-c2ccc(F)cc2)ccc1Cl [Compound 15, 2,2,2-trifluoroacetate]	> 7.00	> 7.00
COc1cc(C(C)(C)c2cnc(SCc3c(F)cc(S(=O)(=O)N(CCC[n+]4ccccc4)[C@H](C)C(=O)O)cc3Cl)n2-c2ccc(F)cc2)ccc1Cl [Compound 15a, (R)-1-(3-(N-(1-carboxyethyl)-3-chloro-4-((5-(2-(4-chloro-3-methoxyphenyl)propan-2-yl)-1-(4-fluorophenyl)-1H-imidazol-2-ylthio)methyl)-5-fluorophenylsulfonamido)propyl)pyridinium chloride]	> 7.00	> 7.00
COc1cc(C(C)(C)c2cnc(SCc3c(F)cc(S(=O)(=O)N(CCC[n+]4ccn(C)c4)[C@H](C)C(=O)O)cc3Cl)n2-c2ccc(F)cc2)ccc1Cl [Compound 15b, (R)-3-(3-(N-(1-carboxyethyl)-3-chloro-4-((5-(2-(4-chloro-3-methoxyphenyl)propan-2-yl)-1-(4-fluorophenyl)-1H-imidazol-2-ylthio)methyl)-5-fluorophenylsulfonamido)propyl)-1-methyl-1H-imidazol-3-ium chloride]	> 7.00	> 7.00
COc1cc(C(C)(C)c2cnc(SCc3c(F)cc(S(=O)(=O)N(C)[C@@H](CCC[N+](C)(C)C)C(=O)O)cc3F)n2-c2ccc(F)cc2)ccc1Cl [Compound 16, (S)-4-carboxy-4-(4-((5-(2-(4-chloro-3-methoxyphenyl)propan-2-yl)-1-(4-fluorophenyl)-1H-imidazol-2-ylthio)methyl)-3,5-difluoro-N-methylphenylsulfonamido)-N,N,N-trimethylbutan-1-aminium 2,2,2-trifluoroacetate]	> 7.00	> 7.00
COc1cc(C(C)(C)c2cnc(SCc3c(F)cc(S(=O)(=O)N(C)[C@@H](CCC[N+](C)(C)C)C(=O)[O-])cc3F)n2-c2ccc(F)cc2)ccc1Cl [Compound 17]	> 7.00	> 7.00
CCN([C@@H](CCC[N+](C)(C)C)C(=O)O)S(=O)(=O)c1cc(F)c(CSc2ncc(C(C)(C)c3ccc(Cl)c(OC)c3)n2-c2ccc(F)cc2)c(F)c1 [Compound 17a, (S)-4-carboxy-4-(4-((5-(2-(4-chloro-3-methoxyphenyl)propan-2-yl)-1-(4-fluorophenyl)-1H-imidazol-2-ylthio)methyl)-N-ethyl-3,5-difluorophenylsulfonamido)-N,N,N-trimethylbutan-1-aminium 2,2,2-trifluoroacetate]	> 7.00	> 7.00
